The term Ki denotes a measure of affinity in units of concentration, obtained from inhibition or displacement. As usually defined, the IC50 is the concentration at which inhibition is half-maximal.

Structures are written as SMILES. Active and inactive are the calls of the source. The calls are words filed in the database; no cut-off is given here.

Target in the first experiment: not listed separately
Kind of experiment: Inhibition of alpha-glucosidase (unknown origin) using p-NPG as substrate by Dixon plot analysis. Also on record: species or system Homo sapiens.
`COc1ccc(/C=C/c2cc(O)cc(O)c2)cc1O`: affinity was put at a Ki of 15.3 µM.

Another experiment is filed under the species Homo sapiens. Kind of experiment: Mixed inhibition of alpha-glucosidase (unknown origin) using p-NPG as substrate by Lineweaver-Burk plot analysis.
As for `COc1ccc(/C=C/c2cc(O)cc(O)c2)cc1O`, the inhibition result is “Active”.

Target in the next experiment: not listed separately
Kind of experiment: Inhibition of alpha-glucosidase (unknown origin) using p-NPG as substrate by spectrophotometric analysis. Also on record: species or system Homo sapiens.
As to `COc1cc(O[C@@H]2O[C@H](CO)[C@@H](O)[C@H](O)[C@H]2O)c2c(O)c(C(C)=O)c(C)cc2c1`, the concentration for half-maximal inhibition (IC50) is above 100 µM.
The same measure, in the same setting: in the case of `COc1ccc(/C=C/c2cc(O)cc(O[C@@H]3O[C@H](COC(=O)c4ccc(O)cc4)[C@@H](O)[C@H](O)[C@H]3O)c2)cc1` it was above 100 µM.
On the same count and under the same terms, the value for `Cc1cc(O[C@@H]2O[C@H](CO)[C@@H](O)[C@H](O)[C@H]2O)c2c(c1)C(=O)c1cccc(O)c1C2=O` [CHRYSOPHANEIN] was above 100 µM.
On the same count and under the same terms, in the case of `OC[C@H]1O[C@@H](Oc2cc(O)cc(/C=C/c3ccc(O)cc3)c2)[C@H](O)[C@@H](O)[C@@H]1O` [PICEID] it was above 100 µM; in that of `C[C@H]1O[C@H](O[C@H]2[C@H](O)[C@@H](O)[C@@H](O[C@H]3[C@H](O)[C@@H](O)C(O)O[C@@H]3CO)O[C@@H]2CO)[C@H](O)[C@@H](O)[C@@H]1N[C@H]1C=C(CO)[C@@H](O)[C@H](O)[C@H]1O` (some centres undefined) [ACARBOSE], 127 µM; in that of `Cc1cc(O)c2c(c1)C(=O)c1cccc(O[C@@H]3O[C@H](CO)[C@@H](O)[C@H](O)[C@H]3O)c1C2=O` [PULMATIN], above 100 µM.
In turn, `COc1ccc(/C=C\c2cc(O)cc(O[C@@H]3O[C@H](COC(=O)/C=C/c4ccc(O)cc4)[C@@H](O)[C@H](O)[C@H]3O)c2)cc1` gave an IC50 above 100 µM.
`COc1cc(O[C@@H]2O[C@H](CO)[C@@H](O)[C@H](O)[C@H]2O)c2c(c1)C(=O)C(C)=C(C(C)=O)C2=O` returned an IC50 above 100 µM.
The same measure, in the same setting: in the case of `COc1ccc(/C=C/c2cc(O)cc(O[C@@H]3O[C@H](COC(C)=O)[C@@H](O)[C@H](O)[C@H]3O)c2)cc1O` it was above 100 µM.
Same read-out and setting: the value for `COc1ccc([C@@H]2[C@@H](c3cc(O)cc(O)c3)[C@@H](c3cc(O)cc(O)c3)[C@@H]2c2ccc(OC)c(O)c2)cc1O` was 80.1 µM.
Still for that read-out and setting: the value for `COc1ccc(/C=C/c2cc(O)cc(O)c2)cc1O` was 15.4 µM.
Take `COc1ccc(/C=C/c2cc(O)cc(O[C@@H]3O[C@H](CO)[C@@H](O)[C@H](O)[C@H]3O)c2)cc1O` [RHAPONTIN]: the IC50 is above 100 µM.

The values are drawn from ChEMBL document CHEMBL4627309, “Tetra-aryl cyclobutane and stilbenes from the rhizomes of Rheum undulatum and their α-glucosidase inhibitory activity: Biological evaluation, kinetic analysis, and molecular docking simulation” (Bioorg Med Chem Lett, 2020).
